Experimental data: patent publication US20240368120A1 (Terns Pharmaceuticals, Inc., priority 2023, published 2024)

Legend:
[1] = Rat pharmacokinetics, oral dosing; type: in vivo, Sprague-Dawley rats; settings: male, Sprague-Dawley, oral dosing at 3 mg/kg, plasma; for half-life: read-out: Rat T1/2
Method: Intravenous dosing: Compounds were formulated at 1.0 mg/mL in a solution comprising 5% polyethylene glycol 400 and 95% (12% (w/v) sulfobutyl-β-cyclodextrin in water) (v/v). Formulated compounds were sterile filtered through a 0.22 micron filter before dosing. Compounds were administered to male, 7-11-week-old Sprague-Dawley rats by jugular vein cannula infusion over 30 minutes at a dose of 1 mg/kg. Oral dosing: Compounds were formulated at 1.0 mg/mL in a solution comprising 5% polyethylene glycol 400 and 95% (12% (w/v) sulfobutyl-β-cyclodextrin in water) (v/v). Formulated compounds were administered to male, 7-11 week old Sprague-Dawley rats by oral gavage at a dose of 10 mg/kg or 3 mg/kg.
Sample collection: Blood collections of about 0.2 mL per time point were performed from jugular vein or other suitable site of each animal, into pre-chilled commercial EDTA-K2 tubes and placed on wet ice until centrifugation. Blood samples were processed for plasma by centrifugation at approximately 4° C., 3,200 g for 10 min. Plasma was collected and transferred into pre-labeled 96 well plate or polypropylene tubes, quick frozen over dry ice and kept at −60° C. or lower until
Data analysis: Plasma concentration versus time data was plotted in graph and analyzed by non-compartmental approaches using the Phoenix WinNonlin 6.3 software program. Related PK parameters were calculated according to dosing route, e.g., CL, Vdss and C0 for intravenous administration, Cmax, Tmax or % F for extravascular administration, and T1/2, AUC(0-t), AUC(0-inf), MRT(0-t), MRT(0-inf) for all routes.

human GLP-1R receptor = target: T1, human GLP-1R receptor (Homo sapiens, UniProt P43220); assay: GLP-1R low expression cell assay (cAMP TR-FRET, CHO-K1_hGLP-1Rlow_clone10 cells); type: cell-based; settings: for EC50: cAMP TR-FRET, 30 min at 25° C.; for Emax: maximum activation relative to control GLP-1 peptide agonist
T1 construct: expressed in transfected cells
T1 sequence (P43220 24-463): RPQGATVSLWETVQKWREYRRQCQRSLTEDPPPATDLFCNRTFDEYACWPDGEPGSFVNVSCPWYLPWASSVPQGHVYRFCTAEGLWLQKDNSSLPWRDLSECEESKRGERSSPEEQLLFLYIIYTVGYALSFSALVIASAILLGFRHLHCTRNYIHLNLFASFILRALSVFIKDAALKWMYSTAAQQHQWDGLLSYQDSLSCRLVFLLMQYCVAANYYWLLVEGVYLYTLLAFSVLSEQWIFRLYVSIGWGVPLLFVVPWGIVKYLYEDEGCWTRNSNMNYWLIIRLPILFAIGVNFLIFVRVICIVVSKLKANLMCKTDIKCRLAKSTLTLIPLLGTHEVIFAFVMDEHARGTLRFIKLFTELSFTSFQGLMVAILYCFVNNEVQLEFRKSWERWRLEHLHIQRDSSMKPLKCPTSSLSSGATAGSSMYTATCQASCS
Summary of the method: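 CHO-K1 cells stably expressing low surface human GLP-1R (clone10), 1,000 cells/well, exposed to 10-point 3-fold compound dilutions for 30 min at 25 °C. cAMP measured by TR-FRET (Eu-cAMP tracer/ULight-anti-cAMP, 15 min). EC50 from Hill fit of duplicate percent activation relative to a parallel GLP-1 control agonist.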

SMILES | AUC [1] [ng·h/mL] | Cmax [1] [ng/mL] | half-life [1] [h] | bioavailability [1] [%] | EC50 (human GLP-1R receptor) [nM] | Emax (human GLP-1R receptor) [%]
Cn1c(N(C)[C@H]2CC[C@H](c3cccc(OCc4ccc(C#N)cc4F)n3)CC2)nc2c(OC(F)F)cc(C(=O)O)cc21 [Compound 133, 2-(((1r,4r)-4-(6-((4-Cyano-2-fluorobenzyl)oxy)pyridin-2-yl)cyclohexyl)(methyl)amino)-4-(difluoromethoxy)-1-methyl-1H-benzo[d]imidazole-6-carboxylic acid] | 500 to 2500 | 500 to 1000 | 1.5 to 2.5 | 25 to 50 | < 10 | > 85
[2H]C([2H])([2H])Oc1cc(C(=O)O)cc2c1nc(CN1CCC(c3cccc(OCc4ccc(Cl)cc4F)n3)CC1)n2C [Compound 207, 2-((4-(6-((4-chloro-2-fluorobenzyl)oxy)pyridin-2-yl)piperidin-1-yl)methyl)-4-(methoxy-d3)-1-methyl-1H-benzo[d]imidazole-6-carboxylic acid] | – | > 5000 | 1.5 to 2.5 | 50 to 85 | < 10 | > 85
COc1cc(Cl)ccc1COc1cccc(C2CCN(Cc3nc4c(OC(F)F)cc(C(=O)O)cc4n3C)CC2)n1 [Compound 226, 2-((4-(6-((4-Chloro-2-methoxybenzyl)oxy)pyridin-2-yl)piperidin-1-yl)methyl)-4-(difluoromethoxy)-1-methyl-1H-benzo[d]imidazole-6-carboxylic acid] | – | > 5000 | ≥ 2.5 | > 85 | < 10 | > 85
COc1cc(C#N)ccc1COc1cccc(C2CCN(Cc3nc4c(OC(F)F)cc(C(=O)O)cc4n3C)CC2)n1 [Compound 156, 2-((4-(6-((4-Cyano-2-methoxybenzyl)oxy)pyridin-2-yl)piperidin-1-yl)methyl)-4-(difluoromethoxy)-1-methyl-1H-benzo[d]imidazole-6-carboxylic acid] | 2500 to 10000 | 2000 to 5000 | < 1.5 | 50 to 85 | < 10 | > 85
COc1c(F)c(C(=O)O)cc2c1nc(CN1CCC(c3cccc(OCc4ccc(C#N)cc4F)n3)CC1)n2C [Compound 301, 2-((4-(6-((4-Cyano-2-fluorobenzyl)oxy)pyridin-2-yl)piperidin-1-yl)methyl)-5-fluoro-4-methoxy-1-methyl-1H-benzo[d]imidazole-6-carboxylic acid] | 500 to 2500 | 500 to 1000 | 1.5 to 2.5 | 50 to 85 | 10 to 100 | > 85
Cn1c(CN2CCC(c3cccc(OCc4ccc(C#N)cc4F)n3)CC2)nc2c(OCF)cc(C(=O)O)cc21 [Compound 113, 2-((4-(6-((4-Cyano-2-fluorobenzyl)oxy)pyridin-2-yl)piperidin-1-yl)methyl)-4-(fluoromethoxy)-1-methyl-1H-benzo[d]imidazole-6-carboxylic acid] | 500 to 2500 | 1000 to 2000 | 1.5 to 2.5 | 50 to 85 | < 10 | > 85
Cn1c(CN2CCC(c3ccc(F)c(OCc4ccc(Cl)cc4F)c3)CC2)nc2c(OC(F)F)cc(C(=O)O)cc21 [Compound 216, 2-((4-(3-((4-Chloro-2-fluorobenzyl)oxy)-4-fluorophenyl)piperidin-1-yl)methyl)-4-(difluoromethoxy)-1-methyl-1H-benzo[d]imidazole-6-carboxylic acid] | – | > 5000 | 1.5 to 2.5 | 50 to 85 | 10 to 100 | > 85
COc1cc(C(=O)O)cc2c1nc(CN1CCC(c3cccc(OCc4ccc(C(F)F)cc4F)n3)CC1)n2C [Compound 305, 2-((4-(6-((4-(Difluoromethyl)-2-fluorobenzyl)oxy)pyridin-2-yl)piperidin-1-yl)methyl)-4-methoxy-1-methyl-1H-benzo[d]imidazole-6-carboxylic acid] | 2500 to 10000 | 2000 to 5000 | 1.5 to 2.5 | 50 to 85 | 10 to 100 | > 85
Cn1c(CN2CCC(c3cccc(OCc4ccc(C#N)cc4F)c3)CC2)nc2c(OC(F)F)cc(C(=O)O)cc21 [Compound 111, 2-((4-(3-((4-Cyano-2-fluorobenzyl)oxy)phenyl)piperidin-1-yl)methyl)-4-(difluoromethoxy)-1-methyl-1H-benzo[d]imidazole-6-carboxylic acid] | – | > 5000 | 1.5 to 2.5 | > 85 | 100 to 1000 | > 85

Continued, values first:

AUC [1] [ng·h/mL] | Cmax [1] [ng/mL] | half-life [1] [h] | bioavailability [1] [%] | EC50 (human GLP-1R receptor) [nM] | Emax (human GLP-1R receptor) [%] | SMILES
< 500 | < 500 | < 1.5 | < 25 | < 10 | > 85 | C[C@]1(c2ccc(Cl)cn2)Oc2cccc(C3CCN(Cc4nc5c(OC6COC6)cc(C(=O)O)cc5n4C[C@@H]4CCO4)CC3)c2O1 [Compound 72, 2-((4-((S)-2-(5-Chloropyridin-2-yl)-2-methylbenzo[d][1,3]dioxol-4-yl)piperidin-1-yl)methyl)-1-(((S)-oxetan-2-yl)methyl)-4-(oxetan-3-yloxy)-1H-benzo[d]imidazole-6-carboxylic acid]
< 500 | < 500 | ≥ 2.5 | < 25 | < 10 | > 85 | C[C@]1(c2ccc(Cl)cn2)Oc2cccc(C3CCN(Cc4nc5c(OCCF)cc(C(=O)O)cc5n4C[C@@H]4CCO4)CC3)c2O1 [Compound 81, 2-((4-((S)-2-(5-Chloropyridin-2-yl)-2-methylbenzo[d][1,3]dioxol-4-yl)piperidin-1-yl)methyl)-4-(2-fluoroethoxy)-1-(((S)-oxetan-2-yl)methyl)-1H-benzo[d]imidazole-6-carboxylic acid]
< 500 | < 500 | < 1.5 | < 25 | < 10 | > 85 | CC(C)Oc1cc(C(=O)O)cc2c1nc(CN1CCC(c3cccc(OCc4ccc(C#N)cc4F)n3)CC1)n2Cc1cncs1 [Compound 73, 2-((4-(6-((4-Cyano-2-fluorobenzyl)oxy)pyridin-2-yl)piperidin-1-yl)methyl)-4-isopropoxy-1-(thiazol-5-ylmethyl)-1H-benzo[d]imidazole-6-carboxylic acid]
– | 2000 to 5000 | ≥ 2.5 | > 85 | < 10 | > 85 | Cn1c(CN2CCC(c3cccc(OCc4ccc(Cl)cc4F)n3)CC2)nc2c(OCF)cc(C(=O)O)cc21 [Compound 225, 2-((4-(6-((4-Chloro-2-fluorobenzyl)oxy)pyridin-2-yl)piperidin-1-yl)methyl)-4-(fluoromethoxy)-1-methyl-1H-benzo[d]imidazole-6-carboxylic acid]
< 500 | < 500 | ≥ 2.5 | < 25 | 10 to 100 | > 85 | C[C@@]1(c2ccc(Cl)cn2)Oc2cccc(C3CCN(Cc4nc5c(OC6CC6)cc(C(=O)O)cc5n4Cc4cncs4)CC3)c2O1 [Compound 7, (R)-2-((4-(2-(5-chloropyridin-2-yl)-2-methylbenzo[d][1,3]dioxol-4-yl)piperidin-1-yl)methyl)-4-cyclopropoxy-1-(thiazol-5-ylmethyl)-1H-benzo[d]imidazole-6-carboxylic acid]
– | > 5000 | 1.5 to 2.5 | > 85 | < 10 | > 85 | COc1cc(C(=O)O)cc2c1nc(CN1CCC(c3cccc(OCc4ccc(Cl)cc4F)n3)CC1)n2C [Compound 249, 2-((4-(6-((4-Chloro-2-fluorobenzyl)oxy)pyridin-2-yl)piperidin-1-yl)methyl)-4-methoxy-1-methyl-1H-benzo[d]imidazole-6-carboxylic acid]
< 500 | < 500 | ≥ 2.5 | < 25 | < 10 | > 85 | COc1cc(C(=O)O)cc2c1nc(N(C)[C@H]1CC[C@H](c3cccc4c3O[C@@](C)(c3ccc(Cl)cn3)O4)CC1)n2C[C@@H]1CCO1 [Compound 80, 2-(((1S,4S)-4-((S)-2-(5-Chloropyridin-2-yl)-2-methylbenzo[d][1,3]dioxol-4-yl)cyclohexyl)(methyl)amino)-4-methoxy-1-(((S)-oxetan-2-yl)methyl)-1H-benzo[d]imidazole-6-carboxylic acid]
< 500 | < 500 | 1.5 to 2.5 | 25 to 50 | < 10 | > 85 | C[C@]1(c2ccc(Cl)cn2)Oc2cccc(C3CCN(Cc4nc5c(OC(F)F)cc(C(=O)O)cc5n4C[C@@H]4CCO4)CC3)c2O1 [Compound 78, 2-((4-((S)-2-(5-Chloropyridin-2-yl)-2-methylbenzo[d][1,3]dioxol-4-yl)piperidin-1-yl)methyl)-4-(difluoromethoxy)-1-(((S)-oxetan-2-yl)methyl)-1H-benzo[d]imidazole-6-carboxylic acid]
